Reference: patent US6150393A (priority 1999, dated 2000)

Key:
5HT2 receptors = experiment: DOI locomotor activity test in rats (DOI inhibition study), intraperitoneal test compound; format: in vivo, rat (male Sprague-Dawley); conditions: i.p. 30 min before DOI (0.3 mg/kg s.c.)
Description: (§1) FIG. 3 provides a graphic summary of dose-response results from in vivo analysis of compound 116082 in a 1-(2,5-dimethoxy-4-iodophenyl)-2-aminopropane ("DOI") inhibition study (fine movement; ambulation; and animal rearing outcome measures). 116082 was administered 30 min prior to DOI. Animals were placed in locomotor activity cages 10 min after DOI administration and activity was measured for 10 min. Results are presented as total activity counts over the 10 min of exposure to the locomotor activity apparatus.
as §1, with “FIG. 4” for “FIG. 3”, “compound 116081” for “compound 116082”, “a DOI” for “a 1-(2,5-dimethoxy-4-iodophenyl)-2-aminopropane ("DOI")”, “measures). 116081” for “measures). 116082”
Assessment of 5-HT2 receptor antagonism in vivo was made by using the DOI locomotor activity test in rats as described by Krebs-Thomson (Psychopharmacology, 140:69-74, 1998).
Motor function was assessed by using automated locomotor activity cages. The rats were placed in a standard rodent cage surrounded by photocell beams, which allow for automated recording of motor activity. […]

[1] = format: in vivo, rat (male Sprague-Dawley)
Description: FIG. 7 provides a graphic summary of the reversal of MK-801-induced hyperactivity using 116081 (7A) and clozapine (7B). […] 116081 produced a significant reversal of the effect of MK-801 at a dose of 25 μmol/kg (10 mg/kg). Results are presented as total activity counts over the 120 min of exposure to the locomotor activity apparatus after administration of MK-801. Data (mean±SEM) were analyzed by ANOVA followed by Dunnett's test (n=6-8/group).
Because part of the symptomatology of schizophrenia may be related to altered glutamate transmission at the NMDA receptor, the reversal of MK-801-induced hyperlocomotor activity in rodents has been used routinely as an animal model for detecting potential antipsychotic activity (O'Neill et al., Pharmacology Biochem. Behav., 63: 237-243, 1999). Thus, this test was used to determine potential antipsychotic properties of 116081 in vivo.
Motor activity was assessed using automated locomotor activity cages as described above (Example 11(A), supra.). Male Sprague-Dawley rats (250-350 g body weight) were administered test compounds (i.p.) and placed in the locomotor activity cages for 30 min of habituation. Following habituation,animals were administered MK-801 (0.5 μmol/kg=0.17 mg/kg, s.c.) and then immediately placed back into the locomotor activity cages, and activity was measured for 120 min. A reversal of MK-801-induced motor activity (as shown by a significant […] of ambulation) in rats is considered to be predictive of the ability of the test compound to reverse psychotic symptoms.

Cn1cc(Br)c(-c2cccc(NC(=O)Nc3ccc(Cl)cc3)c2)n1 [Compound 116081, N-[3-(4-bromo-1-methylpyrazol-3-yl)phenyl][(4-chlorophenyl)amino]carboxamide]
reversal of DOI-induced motor dysfunction (5HT2 receptors): beneficially reverses DOI-induced motor dysfunction | efficacy in reversing motor activity induced by MK-801, compared with clozapine ([1]; FIGS. 7A and 7B): equiefficacious to the atypical antipsychotic clozapine | attenuation of MK-801-induced hyperactivity (ambulations) ([1]; i.p., total activity counts over 120 min after MK-801): dose-dependently attenuated MK801-induced hyperactivity
